The values that follow come from patent publication US7238813B2, “Chemical compounds” (Smithkline Beecham Corporation, priority 2000, dated 2007).

One assay concerns the target T1, GST-VEGFR2 (Homo sapiens, UniProt P35968).
T1 construct: GST-VEGFR2, baculovirus expressed recombinant constructs of the intracellular domains of human TIE2 tagged by GST; made in house
Kind of assay: VEGF-R2 enzyme assay (VEGF-E), LANCE method. In kind it is biochemical. The following applies: 75 μM ATP. In general terms: TR-FRET usually uses a lanthanide donor and a delayed reading to cut background.

Another assay concerns the target Recombinant GST-Tie2 (Homo sapiens, UniProt Q02763). Kind of assay: Tie2 fluorescence polarization kinase activity assay (TIE2-FP). The assay is classed as biochemical. The following applies: starred examples, 200 μM ATP, read-out: TIE2-E (Tie-2 activities run utilizing Tie2-FP assay). As for the experimental part: Tie2 Fluorescence Polarization Kinase Activity Assay: (TIE2-FP)
Activation of Recombinant Tie2 Activation:
Recombinant GST-Tie2 was activated by incubating the enzyme in 20 mM Tris-HCl, pH 7.5, 12 mM MgCl2, 100 mM NaCl, 20 μM sodium vanidate, 1 mM DTT and 300 μM ATP at room temperature for 2 hours. The activation mixture was then passed through a NAP-25 desalting column (Pharmacia Biotech cat. no. 17-0852-02) to remove the free ATP. The activated enzyme was stored as aliquots at −80° C. in 20 mM Tris-HCl, pH 7.5 and 100 mM NaCl.
The final assay conditions were 50 mM HEPES, pH 7.5, 5% DMSO (when screening compounds), 200 μM ATP, 5 mM MgCl2, 1 mM DTT, 50 μM sodium vanidate, 1 nM activated enzyme, and 200 μM peptide. IC50's of compounds were measured under subsaturating ATP (200 μM) and varing concentrations of activated Tie2 and peptide substrate ([…]-OH; MW 1873 Da, TFA salt). Panvera Antiphosphotyrosine antibody (Cat#P2840) and PTK Green Tracer (Cat#P2842) were used to detect the phosphorylated peptide. Polarization was measured on a TECAN Polarion in 138-second cycles for 30 minutes at room temperature. IC50's were then determined from the % polarization using normal calculation methods.

For assay [1], the target named is T2, GST-TIE2 (intracellular domains of human TIE2) (Homo sapiens, UniProt Q02763).
T2 construct: made in house
The assay is described as follows: TIE-2 enzyme assay (TIE2-E), LANCE method. The assay is classed as biochemical. Conditions: 80 uM ATP. The procedure, abridged: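 Baculovirus GST-TIE2 (human intracellular domain, aa 762–1104) preactivated 30 min at RT with 2 mM ATP, then reacted 30 min at RT with 1 μM D1-15 peptide, 80 uM ATP, 10 mM MgCl2, pH 7.4, 2.4% DMSO. EDTA-stopped; LANCE Eu-anti-pTyr/streptavidin-APC read-out. IC50 by nonlinear regression, reported as pIC50.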

For assay [2], the target named is T3, TIE2 intracellular domain/c-fms extracellular domain (TIE2/c-fms) chimeric protein expressing mouse 3T3 cells (Homo sapiens, UniProt Q02763).
T3 construct: a TIE2 intracellular domain/c-fms extracellular domain (TIE2/c-fms) chimeric protein; expressed in transfected cells; host or cells: mouse 3T3 cells
Kind of assay: TIE-2 autophosphorylation assay (TIE2-C), ELISA. The assay is classed as cell-based. The following applies: TIE2/c-fms 3T3 cells, MCSF activation. The method in brief:
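Mouse 3T3 cells expressing TIE2 intracellular/c-fms extracellular chimera treated with compound for 1 hr in serum-free DMEM (0.1% DMSO), then stimulated with MCSF. Lysates captured on anti-c-fms plates overnight at 4 °C; phosphotyrosine detected by biotin-PT66/HRP-streptavidin, OD450. IC50 by nonlinear regression, reported as pIC50.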

The subject of assay [3] is Human umbilical cord endothelial cells (HUVEC). The assay is described as follows: VEGF-driven cellular proliferation assay: BrdU incorporation assay (VEGF-C). The following applies: for IC50: Homo sapiens. In kind it is cell-based. Further details: key to VEGF-C: + = pIC50 of 5.0–6.0; ++ = pIC50 of 6.0–7.0; +++ = pIC50 of > 7.0; − = a negative or inconclusive result. The procedure, abridged: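 HUVEC (≤6 passages) were plated at 5000 cells/well and exposed to compound 30 min in serum-free M199 containing 0.6% DMSO. Medium with 20 ng/ml VEGF was then added for 24 h, followed by a 24 h pulse with 10 μM BrdU and ELISA read at 450 nm. IC50 from nonlinear regression of percent inhibition was expressed as pIC50.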
On the technique in general: Dividing cells build labelled thymidine or BrdU into new DNA.

Counter-ions that a name gives are not always drawn.

T1 sequence (P35968 786-1356 limits assumed): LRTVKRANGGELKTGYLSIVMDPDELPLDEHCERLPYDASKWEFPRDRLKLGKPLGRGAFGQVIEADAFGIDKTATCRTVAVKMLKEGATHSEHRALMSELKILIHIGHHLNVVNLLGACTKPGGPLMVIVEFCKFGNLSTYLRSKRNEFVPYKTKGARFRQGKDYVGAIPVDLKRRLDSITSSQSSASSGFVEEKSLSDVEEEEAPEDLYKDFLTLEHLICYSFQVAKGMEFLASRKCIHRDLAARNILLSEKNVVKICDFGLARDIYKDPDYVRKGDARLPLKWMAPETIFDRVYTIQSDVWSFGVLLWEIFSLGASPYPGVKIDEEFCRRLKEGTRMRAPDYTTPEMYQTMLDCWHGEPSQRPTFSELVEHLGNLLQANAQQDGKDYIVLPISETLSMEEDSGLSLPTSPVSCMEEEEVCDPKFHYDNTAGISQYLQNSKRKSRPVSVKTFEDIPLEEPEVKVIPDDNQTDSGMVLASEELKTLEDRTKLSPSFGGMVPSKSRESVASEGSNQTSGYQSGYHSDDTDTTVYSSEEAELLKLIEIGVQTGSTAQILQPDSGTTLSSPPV
T2 sequence (Q02763 762-1104): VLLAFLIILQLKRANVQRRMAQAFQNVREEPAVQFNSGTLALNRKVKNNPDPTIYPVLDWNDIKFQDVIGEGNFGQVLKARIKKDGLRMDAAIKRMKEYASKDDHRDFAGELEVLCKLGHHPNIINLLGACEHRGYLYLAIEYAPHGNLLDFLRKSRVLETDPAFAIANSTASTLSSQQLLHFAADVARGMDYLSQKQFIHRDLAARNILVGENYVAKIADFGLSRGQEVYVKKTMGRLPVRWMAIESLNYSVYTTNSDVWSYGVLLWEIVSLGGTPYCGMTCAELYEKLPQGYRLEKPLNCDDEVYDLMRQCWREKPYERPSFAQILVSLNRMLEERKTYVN
T3 sequence (Q02763 770-1124 limits assumed, change not shown): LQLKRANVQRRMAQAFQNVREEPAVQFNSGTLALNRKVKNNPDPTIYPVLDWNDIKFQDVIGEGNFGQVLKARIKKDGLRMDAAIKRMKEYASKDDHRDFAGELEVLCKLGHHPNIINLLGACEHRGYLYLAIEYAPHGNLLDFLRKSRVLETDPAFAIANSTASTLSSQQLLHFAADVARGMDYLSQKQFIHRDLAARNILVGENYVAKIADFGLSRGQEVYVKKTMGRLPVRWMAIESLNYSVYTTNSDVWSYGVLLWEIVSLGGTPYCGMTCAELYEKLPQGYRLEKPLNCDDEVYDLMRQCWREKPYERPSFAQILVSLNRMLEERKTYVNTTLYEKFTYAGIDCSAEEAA
Chain of Recombinant GST-Tie2 (Q02763 23-1124): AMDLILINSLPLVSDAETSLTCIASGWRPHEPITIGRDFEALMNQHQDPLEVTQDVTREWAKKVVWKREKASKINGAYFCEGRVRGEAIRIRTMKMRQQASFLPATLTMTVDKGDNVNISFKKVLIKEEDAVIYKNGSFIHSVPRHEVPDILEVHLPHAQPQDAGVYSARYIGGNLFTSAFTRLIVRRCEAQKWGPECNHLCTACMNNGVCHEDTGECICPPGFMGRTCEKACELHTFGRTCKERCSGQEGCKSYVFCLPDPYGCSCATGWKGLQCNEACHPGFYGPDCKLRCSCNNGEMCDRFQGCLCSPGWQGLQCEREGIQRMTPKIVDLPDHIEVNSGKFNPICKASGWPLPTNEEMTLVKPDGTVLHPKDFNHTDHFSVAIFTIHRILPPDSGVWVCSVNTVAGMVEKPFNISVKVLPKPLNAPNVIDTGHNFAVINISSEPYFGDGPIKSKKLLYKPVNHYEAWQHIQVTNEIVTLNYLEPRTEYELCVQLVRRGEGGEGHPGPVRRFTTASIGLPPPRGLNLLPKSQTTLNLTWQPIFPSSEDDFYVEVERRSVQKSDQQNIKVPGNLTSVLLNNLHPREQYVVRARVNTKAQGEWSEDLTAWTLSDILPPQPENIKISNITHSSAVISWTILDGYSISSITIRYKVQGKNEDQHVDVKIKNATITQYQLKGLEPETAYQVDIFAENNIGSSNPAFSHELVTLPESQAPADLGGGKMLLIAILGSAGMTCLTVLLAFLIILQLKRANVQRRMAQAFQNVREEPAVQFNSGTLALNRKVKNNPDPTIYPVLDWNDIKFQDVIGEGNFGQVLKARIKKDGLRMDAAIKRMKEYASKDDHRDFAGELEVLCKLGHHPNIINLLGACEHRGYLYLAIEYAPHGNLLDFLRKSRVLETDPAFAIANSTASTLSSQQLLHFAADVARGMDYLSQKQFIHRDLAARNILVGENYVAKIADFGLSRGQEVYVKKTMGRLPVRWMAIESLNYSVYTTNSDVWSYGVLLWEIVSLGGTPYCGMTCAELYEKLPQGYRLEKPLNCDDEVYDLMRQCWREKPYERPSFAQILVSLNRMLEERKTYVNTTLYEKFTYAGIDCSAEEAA

Take `COCCOCC(=O)Nc1nc2cc(Oc3ccc(NC(=O)Nc4nc(C)cs4)cc3)ccc2[nH]1` [Example 153, N-(5-(4-((4-Methylthiazol-2-yl)aminocarbonylamino)phenoxy)-1H-benzimidazol-2-yl)(2-(methoxy)ethoxy)acetamide]: the results for the IC50 against GST-VEGFR2 and on Recombinant GST-Tie2 were 100 to 1000 nM and 1000 to 10000 nM, respectively.
Regarding `COCCOCC(=O)Nc1nc2cc(Oc3ccc(NC(=O)Nc4nnc(C(C)(C)C)s4)cc3)ccc2[nH]1` [Example 159, N-(5-(4-((5-tert-Butyl-1,3,4-thiadiazol-2-yl)aminocarbonylamino)phenoxy)-1H-benzimidazol-2-yl)(2-(methoxy)ethoxy)acetamide], the IC50 against GST-VEGFR2 and at Recombinant GST-Tie2 was less than 100 nM throughout.
Regarding `COC(=O)Nc1nc2cc(Oc3ccc(NC(=O)Nc4cc(F)cc(C(F)(F)F)c4)cc3)ccc2[nH]1` [Example 50, Methyl N-(5-(4-((3-fluoro-5-(trifluoromethyl)phenyl)aminocarbonylamino)phenoxy)-1H-benzimidazol-2-yl)carbamate], the IC50 was less than 100 nM in assay [1], less than 100 nM in assay [2], less than 100 nM on GST-VEGFR2 and 100 to 1000 nM in assay [3].
With `COC(=O)Nc1nc2ccc(Sc3ccc(NC(=O)Nc4cc(OC)cc(OC)c4)cc3)cc2[nH]1` [Example 5, Methyl N-(5-(4-((3,5-dimethoxyphenyl)aminocarbonylamino)phenylthio)-1H-benzimidazol-2-yl)carbamate], the IC50 is 100 to 1000 nM in assay [1], less than 100 nM in assay [2] and 1000 to 10000 nM against GST-VEGFR2. Besides, the VEGF-C result in assay [3] was “−”.
For `COC(=O)Nc1nc2cc(Oc3ccc(NC(=O)Nc4cccc(Cl)c4)cc3)ccc2[nH]1` [Example 1, Methyl N-(5-(4-((3-chlorophenyl)aminocarbonylamino)phenoxy)-1H-benzimidazol-2-yl)carbamate], the IC50 was less than 100 nM in assay [1], 100 to 1000 nM in assay [2] and less than 100 nM on GST-VEGFR2. The VEGF-C entry in assay [3] was “−”.
Take `NCC(=O)Nc1nc2cc(Oc3ccc(NC(=O)Nc4cc(C(F)(F)F)ccc4F)cc3)ccc2[nH]1` [Example 30, N-(5-(4-((2-Fluoro-5-(trifluoromethyl)phenyl)aminocarbonylamino)phenoxy)-1H-benzimidazol-2-yl)-2-aminoacetamide dihydrochloride]: the IC50 is less than 100 nM in assay [1], less than 100 nM in assay [2], less than 100 nM against GST-VEGFR2 and 100 to 1000 nM in assay [3].
As to `COC(=O)Nc1nc2cc(Oc3ccc(NC(=O)Nc4cccc(C(F)(F)F)c4)cc3)ccc2[nH]1` [Example 19, Methyl N-(5-(4-((3-(trifluoromethyl)phenyl)aminocarbonylamino)phenoxy)-1H-benzimidazol-2-yl)carbamate], the IC50 (in assay [1]; in assay [2]; against GST-VEGFR2) was less than 100 nM in each case. Further, in assay [3], the VEGF-C result was “−”.
Turning to `CC(=O)NCC(=O)Nc1nc2cc(Oc3ccc(NC(=O)Nc4cc(C(F)(F)F)ccc4F)cc3)ccc2[nH]1` [Example 29, N-(5-(4-((2-Fluoro-5-(trifluoromethyl)phenyl)aminocarbonylamino)phenoxy)-1H-benzimidazol-2-yl)-2-(N-acetylamino)acetamide], the IC50 was less than 100 nM in assay [1], less than 100 nM in assay [2], less than 100 nM against GST-VEGFR2 and 100 to 1000 nM in assay [3].
As for `Cc1ccc(S(=O)(=O)n2c(N)nc3ccc(Oc4ccc(NC(=O)Nc5cc(C(F)(F)F)ccc5F)cc4)cc32)cc1` [Example 24, 6-(4-((2-Fluoro-5-(trifluoromethyl)phenyl)aminocarbonylamino)phenoxy)-1-(4-(methyl)phenylsulfonyl)-1H-benzimidazol-2-ylamine], the results for the IC50 (in assay [1]; in assay [2]; at GST-VEGFR2) were less than 100 nM, 100 to 1000 nM and less than 100 nM, respectively. The VEGF-C entry in assay [3] was “−”.
`CN(C)CC(=O)Nc1nc2cc(Oc3ccc(NC(=O)Nc4cc(C(F)(F)F)ccc4F)cc3)ccc2[nH]1` [Example 102]: the IC50 (in assay [1]; in assay [2]; on GST-VEGFR2; in assay [3]) was less than 100 nM throughout.
`COC(=O)Nc1nc2ccc(Sc3ccc(NC(=O)Nc4cccc(Br)c4)cc3)cc2[nH]1` [Example 4, Methyl N-(5-(4-((3-bromophenyl)aminocarbonylamino)phenylthio)-1H-benzimidazol-2-yl)carbamate]: the IC50 in assay [1] is less than 100 nM; in assay [2] it was 1000 to 10000 nM; against GST-VEGFR2, 100 to 1000 nM. Moreover, the VEGF-C entry in assay [3] is reported as “−”.
In the same order, the values of `COC(=O)Nc1nc2cc(Oc3ccc(NC(=O)Nc4ccc(Cl)c(C(F)(F)F)c4)cc3)ccc2[nH]1` [Example 44, Methyl N-(5-(4-((4-chloro-3-(trifluoromethyl)phenyl)aminocarbonylamino)phenoxy)-1H-benzimidazol-2-yl)carbamate] are less than 100 nM, 100 to 1000 nM, less than 100 nM and “−”.
Turning to `CCOC(=O)Nc1nc2cc(Oc3ccc(NC(=O)Nc4cc(C(F)(F)F)ccc4F)cc3)ccc2[nH]1` [Example 17, Ethyl N-(5-(4-((2-fluoro-5-(trifluoromethyl)phenyl)aminocarbonylamino)phenoxy)-1H-benzimidazol-2-yl)carbamate], the IC50 (in assay [1]; in assay [2]; against GST-VEGFR2; in assay [3]) was less than 100 nM each time.
As to `COC(=O)Nc1nc2cc(Oc3ccc(NC(=O)Nc4cccc(SC)c4)cc3)ccc2[nH]1` [Example 48], the IC50 (in assay [1]; in assay [2]; on GST-VEGFR2) was less than 100 nM each time. The VEGF-C entry in assay [3] was “−”.
Turning to `COC(=O)Nc1nc2ccc(Oc3ccc(NC(=O)Nc4cc(Cl)ccc4Cl)cc3)nc2[nH]1.Cl` [Example 74, Methyl N-(5-(4-((2,5-dichlorophenyl)aminocarbonylamino)phenoxy)-3,4-diaza-1H-indole-2-yl)carbamate dihydrochloride], the IC50 (in assay [1]; in assay [2]; at GST-VEGFR2) was less than 100 nM in each case. The VEGF-C entry in assay [3] is reported as “−”.
Consider `O=C(Nc1ccc(Oc2ccc3[nH]c(NC(=O)C4CCCC4)nc3c2)cc1)Nc1cc(C(F)(F)F)ccc1F` [Example 26, N-(5-(4-((2-Fluoro-5-(trifluoromethyl)phenyl)aminocarbonylamino)phenoxy)-1H-benzimidazol-2-yl)cyclopentamide], for which the IC50 in assay [1] is less than 100 nM; in assay [2], 100 to 1000 nM; on GST-VEGFR2, less than 100 nM; in assay [3], 100 to 1000 nM.
Turning to `O=C(Nc1ccc(Oc2ccc3[nH]c(NC(=O)OCc4ccccc4)nc3c2)cc1)Nc1cc(C(F)(F)F)ccc1F` [Example 81, Benzyl N-(5-(4-((2-fluoro-5-(trifluoromethyl)phenyl)aminocarbonylamino)phenoxy)-1H-benzimidazol-2-yl)carbamate], the IC50 (in assay [1]; in assay [2]; at GST-VEGFR2) was less than 100 nM in each case. The VEGF-C result in assay [3] was “−”.
With `CC(C)CCC(=O)Nc1nc2cc(Oc3ccc(NC(=O)Nc4cc(C(F)(F)F)ccc4F)cc3)ccc2[nH]1` [Example 28, N-(5-(4-((2-Fluoro-5-(trifluoromethyl)phenyl)aminocarbonylamino)phenoxy)-1H-benzimidazol-2-yl)-4-methylpentamide], the IC50 in assay [1] was less than 100 nM; in assay [2], less than 100 nM; against GST-VEGFR2, less than 100 nM; in assay [3] it was 100 to 1000 nM.
